Data reported in article PMC3563422 (Bioorganic & medicinal chemistry, 2012).

Assays:
Type in all cases: biochemical
DENV2 NS2B/NS3pro = DENV2 NS2B/NS3pro (Dengue virus type 2, UniProt P14340); assay: In vitro DENV2 NS2B/NS3pro protease inhibition assay; conditions: screened at 25 μM
WNV NS2B/NS3pro [1] = target: T1, WNV NS2B/NS3pro (West Nile virus, UniProt Q9Q6P4); assay: In vitro WNV NS2B/NS3pro protease inhibition assay; conditions: screened at 25 μM
Dengue virus protease = Dengue virus protease (Dengue virus type 2, UniProt P14340); assay: Kinetics analysis of DENV NS2B/NS3pro inhibition
Dengue virus protease, sequence (P14340 1476-1653): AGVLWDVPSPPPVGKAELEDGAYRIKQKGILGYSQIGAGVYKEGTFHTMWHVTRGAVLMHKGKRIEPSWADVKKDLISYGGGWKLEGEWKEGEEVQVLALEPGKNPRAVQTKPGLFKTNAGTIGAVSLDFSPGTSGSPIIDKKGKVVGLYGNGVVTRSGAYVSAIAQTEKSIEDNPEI

WNV NS2B/NS3pro [2] = target: T1, WNV NS2B/NS3pro; assay: Kinetics analysis of WNV NS2B/NS3pro inhibition; conditions: for kcat of tetra-peptide substrate: 37 °C, WNV NS2B/NS3pro 28 nM

T1 sequence (Q9Q6P4 1506-1683): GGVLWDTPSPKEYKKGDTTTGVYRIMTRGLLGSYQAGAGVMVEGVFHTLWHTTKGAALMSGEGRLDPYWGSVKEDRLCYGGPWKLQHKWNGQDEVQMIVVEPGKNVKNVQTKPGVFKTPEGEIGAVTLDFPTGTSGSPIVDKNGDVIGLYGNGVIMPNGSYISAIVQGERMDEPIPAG
DENV2 NS2B/NS3pro, sequence (P14340 1476-1653): as the sequence (P14340 1476-1653) above

Row | Compound | activity against DENV NS2B/NS3pro (screen) (DENV2 NS2B/NS3pro) | activity against WNV NS2B/NS3pro (screen) (WNV NS2B/NS3pro [1]) | Ki (Dengue virus protease) [µM] | mode of inhibition of Dengue virus protease (Dengue virus protease; from kinetics data) | Ki (WNV NS2B/NS3pro [2]) [µM] | kcat of tetra-peptide substrate (WNV NS2B/NS3pro [2]; [7n] = 1 μM) [s⁻¹] | kcat of tetra-peptide substrate (WNV NS2B/NS3pro [2]; [7n] = 3 μM) [s⁻¹] | kcat of tetra-peptide substrate (WNV NS2B/NS3pro [2]; [7n] = 5 μM) [s⁻¹] | mode of inhibition of West Nile virus protease (WNV NS2B/NS3pro [2]; from kinetics data)
1 | O=C(NCc1cn(CSc2ccccc2)nn1)Nc1ccc(C(=O)Nc2ccc(Oc3ccccc3)cc2)cc1 [Compound 7a] | inactive | inactive | – | – | – | – | – | – | –
2 | O=C(NCc1cn(Cc2ccc(F)cc2)nn1)Nc1ccc(C(=O)Nc2ccc(Oc3ccccc3)cc2)cc1 [Compound 7n] | – | – | 8.77 | competitive | 5.55 | 0.059 ± 0.0014 | 0.062 ± 0.0018 | 0.055 ± 0.0020 | competitive
3 | O=C(NCc1cn(Cc2ccccc2)nn1)Nc1cccc(C(=O)Nc2cccc(Oc3ccccc3)c2)c1 [Compound 8f] | inactive | inactive | – | – | – | – | – | – | –
